Papp A→B data for 17 molecules are collected here from patent US20200131669A1, “CYCLIC PEPTIDE COMPOUND HAVING HIGH MEMBRANE PERMEABILITY, AND LIBRARY CONTAINING SAME” (Chugai Seiyaku Kabushiki Kaisha, priority 2017, published 2020).

Each structure is given as a SMILES string. Starred links: 1 amine or outer side, 2 acyl side, 3 side chain; linkers in the order of their positions; H or OH if unused. Positions of bridges follow the written chain, without caps; N, C: chain ends. Non-standard residues stand in square brackets, D forms with d. Residues, ends and D or L forms follow the SMILES beside them. ξ: configuration not given here. *: point of attachment. NMeAbu(4-morpholino) = CN[C@@H](CCN1CCOCC1)C(=O)O; Phe(4-CF3) = N[C@@H](Cc1ccc(C(F)(F)F)cc1)C(=O)O; NMeAla(4-thiazolyl) = CN[C@@H](Cc1cscn1)C(=O)O; NMePhe(3-Cl) = CN[C@@H](Cc1cccc(Cl)c1)C(=O)O; NMePhe(4-Cl) = CN[C@@H](Cc1ccc(Cl)cc1)C(=O)O; X14 = O=C([C@H](CCc1ccccc1Cl)N[*:1])[*:2]; hhPhe = N[C@@H](CCCc1ccccc1)C(=O)O; NMeF = CN[C@@H](Cc1ccccc1)C(=O)O; NMeI = CC[C@H](C)[C@H](NC)C(=O)O; hPhe = N[C@@H](CCc1ccccc1)C(=O)O; NMeD = CN[C@@H](CC(=O)O)C(=O)O; NMeL = CN[C@@H](CC(C)C)C(=O)O; ξNMeF = CNC(Cc1ccccc1)C(=O)O; NMeV = CN[C@H](C(=O)O)C(C)C; Pip = O=C(O)[C@@H]1CCCCN1; NMeA = CN[C@@H](C)C(=O)O; Piperidide = C1CCN(*)CC1; dNMeA = CN[C@H](C)C(=O)O; NBuGly = CCCCNCC(=O)O; Bn = c1ccc(C*)cc1; Sar = CNCC(=O)O; tBu = CC(C)(C)*; Propyl = CCC*

The first data set is described as follows: Caco-2 membrane permeability, improved method as used in the following Examples (96-well, 20 to 24 h preincubation). The class given is in vitro ADME. The following applies: Caco-2, Caco-2 (cm/sec). The essentials:
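Caco-2 monolayers were grown three weeks and preincubated 20–24 h at 37 °C with compound in DMEM+FaSSIF (1% DMSO) apically. The assay then used compound in FaSSIF/HBSS (1% DMSO, pH 6.0) apically and HBSS with 4% BSA (pH 7.4) basally. Basal samples were taken at 180 min for LC/MS, and Papp (cm/sec) was calculated.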
(Passage across Caco-2 layers is used to estimate intestinal permeability.)
`CC[C@H](C)[C@H]1C(=O)N[C@@H]([C@@H](C)O)C(=O)N(C)CC(=O)N(C)[C@@H](C)C(=O)N[C@H](C(=O)N2CCCCC2)CC(=O)N(C)[C@@H](C)C(=O)N[C@@H](Cc2ccc(C(F)(F)F)cc2)C(=O)N(C)[C@@H](CC(C)C)C(=O)N(C)[C@@H](Cc2ccccc2)C(=O)N[C@@H](C)C(=O)N(C)[C@@H](CC(C)C)C(=O)N1C` [pd131] ([NMeA][Phe(4-CF3)][NMeL][NMeF]A[NMeL][NMeI]T[Sar][NMeA]D-Piperidide; lactam N-11) displayed a Papp A→B of 1.1 ×10⁻⁶ cm/s.

The data set is the same for the next values; noted with them: human, Caco-2, Caco-2.
Molecule `CCCCN1CC(=O)N(C)[C@@H](C(C)C)C(=O)N[C@H](C(=O)N2CCCCC2)CC(=O)N(C)[C@@H](C)C(=O)N[C@@H](CC(C)C)C(=O)N(C)[C@@H](CC(C)C)C(=O)N(C)[C@@H](Cc2ccccc2)C(=O)N[C@@H](CC(C)C)C(=O)N(C)[C@@H](Cc2ccccc2)C(=O)N(C)[C@@H](CCN2CCOCC2)C(=O)N[C@@H]([C@@H](C)O)C1=O` [pd453] ([NMeA]L[NMeL][NMeF]L[NMeF][NMeAbu(4-morpholino)]T[NBuGly][NMeV]D-Piperidide; lactam N-11) yielded a Papp A→B at 180 min of 2.3 ×10⁻⁶ cm/s.

The molecule `CC(C)C[C@H]1C(=O)N[C@@H](COC(C)(C)C)C(=O)N(C)[C@@H](Cc2ccccc2)C(=O)N(C)[C@@H](CC(C)C)C(=O)N[C@H](C(=O)N2CCCCC2)CC(=O)N[C@H](C(C)C)C(=O)N(C)[C@@H](CC(C)C)C(=O)N[C@@H](CCc2ccccc2)C(=O)N(C)[C@@H](CC(C)C)C(=O)N[C@@H]([C@@H](C)O)C(=O)N(C)CC(=O)N1C` [pd315] ([dV][NMeL][hPhe][NMeL]T[Sar][NMeL]S(tBu)[NMeF][NMeL]D-Piperidide; lactam N-11) yielded a Papp A→B at 180 min of 1.7 ×10⁻⁶ cm/s.

The molecule `CC(C)C[C@@H]1NC(=O)[C@H](Cc2ccccc2)N(C)C(=O)[C@@H](C(C)C)NC(=O)C[C@@H](C(=O)N2CCCCC2)NC(=O)[C@H](C)N(C)C(=O)[C@H](CC(C)C)N(C)C(=O)[C@H](CCc2ccccc2)NC(=O)[C@H](CC(C)C)N(C)C(=O)CN(C)C(=O)[C@H]([C@@H](C)O)NC(=O)[C@H](CC(C)C)N(C)C1=O` [pd312] ([dV][NMeF]L[NMeL]T[Sar][NMeL][hPhe][NMeL][NMeA]D-Piperidide; lactam N-11) displayed a Papp A→B at 180 min of 1.5 ×10⁻⁶ cm/s.

Molecule `CC(C)C[C@H]1C(=O)N[C@H](C(=O)N2CCCCC2)CC(=O)N(C)[C@@H](C)C(=O)N[C@@H](CCc2ccccc2Cl)C(=O)N(C)[C@@H](CC(C)C)C(=O)N(C)[C@@H](CC(C)C)C(=O)N[C@@H](C)C(=O)N(C)[C@@H](Cc2ccccc2)C(=O)N(C)[C@@H](C(C)C)C(=O)N[C@@H]([C@@H](C)O)C(=O)N(C)CC(=O)N1C` [pd353] ([NMeA][X14][NMeL][NMeL]A[NMeF][NMeV]T[Sar][NMeL]D-Piperidide; lactam N-11) came in with a Papp A→B at 180 min of 1.4 ×10⁻⁶ cm/s.

`CCCOC[C@@H]1NC(=O)[C@H](CC(C)C)N(C)C(=O)[C@H](Cc2ccccc2)N(C)C(=O)CN(C)C(=O)[C@H]([C@@H](C)O)NC(=O)[C@H](CC(C)C)N(C)C(=O)[C@H]([C@@H](C)CC)NC(=O)[C@H](Cc2ccccc2)N(C)C(=O)CN(C)C(=O)C[C@@H](C(=O)N2CCCCC2)NC(=O)[C@H](CC(C)C)N(C)C1=O` [pd330] ([Sar][NMeF]I[NMeL]T[Sar][NMeF][NMeL]S(Propyl)[NMeL]D-Piperidide; lactam N-11): the Papp A→B at 180 min came to 1.8 ×10⁻⁶ cm/s.

For `CC(C)C[C@H]1C(=O)N[C@@H]([C@@H](C)O)C(=O)N(C)CC(=O)N(C)[C@@H](Cc2ccccc2)C(=O)N(C)[C@@H](CC(C)C)C(=O)N[C@@H](COC(C)(C)C)C(=O)N(C)[C@@H](CC(C)C)C(=O)N[C@H](C(=O)N2CCCCC2)CC(=O)N(C)CC(=O)N(C)[C@@H](Cc2ccccc2)C(=O)N[C@@H](COCc2ccccc2)C(=O)N1C` [pd369] ([Sar][NMeF]S(Bn)[NMeL]T[Sar][NMeF][NMeL]S(tBu)[NMeL]D-Piperidide; lactam N-11), the Papp A→B at 180 min was determined as 3 ×10⁻⁶ cm/s.

As for `CC[C@H](C)[C@H]1C(=O)N[C@@H]([C@@H](C)O)C(=O)N(C)CC(=O)N(C)[C@@H](CC(C)C)C(=O)N[C@H](C(=O)N2CCCCC2)CC(=O)N(C)[C@@H](C)C(=O)NC(COc2cccc(Cl)c2)C(=O)N(C)[C@@H](CC(C)C)C(=O)N(C)[C@@H](Cc2ccccc2)C(=O)N[C@@H](C)C(=O)N(C)[C@@H](Cc2ccccc2)C(=O)N1C` (some centres unmarked) [pd344], the Papp A→B at 180 min was 1.3 ×10⁻⁶ cm/s.

The data set is the same for the next values; noted with them: human, Caco-2, Caco-2 (cm/sec).
For `CC(C)C[C@@H]1NC(=O)[C@H](Cc2ccccc2)N(C)C(=O)[C@@H](C)N(C)C(=O)C[C@@H](C(=O)N2CCCCC2)N(C)C(=O)[C@H](Cc2ccccc2)N(C)C(=O)[C@H](Cc2ccccc2)N(C)C(=O)[C@H](COC(C)(C)C)NC(=O)[C@H](C(C)C)N(C)C(=O)CN(C)C(=O)[C@H]([C@@H](C)O)NC(=O)[C@H](CC(C)C)N(C)C1=O` [pd199] ([dNMeA][NMeF]L[NMeL]T[Sar][NMeV]S(tBu)[NMeF][NMeF][NMeD]-Piperidide; lactam N-11), the Papp A→B at 180 min came out at 2.6 ×10⁻⁶ cm/s.

The molecule `CC[C@H](C)[C@@H]1NC(=O)[C@H](Cc2ccccc2)N(C)C(=O)CN(C)C(=O)C[C@@H](C(=O)N2CCCCC2)NC(=O)[C@H](C(C)C)N(C)C(=O)[C@H](COC(C)(C)C)NC(=O)[C@H](CC(C)C)N(C)C(=O)[C@H](Cc2ccc(Cl)cc2)N(C)C(=O)CN(C)C(=O)[C@H]([C@@H](C)O)NC(=O)[C@H](CC(C)C)N(C)C1=O` [pd175] ([Sar][NMeF]I[NMeL]T[Sar][NMePhe(4-Cl)][NMeL]S(tBu)[NMeV]D-Piperidide; lactam N-11) came in with a Papp A→B at 180 min of 1.1 ×10⁻⁶ cm/s.

For `CC[C@H](C)[C@@H]1NC(=O)[C@H](Cc2ccccc2)N(C)C(=O)CN(C)C(=O)C[C@@H](C(=O)N2CCCCC2)NC(=O)[C@H](C(C)C)N(C)C(=O)[C@H](COC(C)(C)C)NC(=O)[C@H](CC(C)C)N(C)C(=O)[C@H](Cc2cccc(Cl)c2)N(C)C(=O)CN(C)C(=O)[C@H]([C@@H](C)O)NC(=O)[C@H](CC(C)C)N(C)C1=O` [pd158] ([Sar][NMeF]I[NMeL]T[Sar][NMePhe(3-Cl)][NMeL]S(tBu)[NMeV]D-Piperidide; lactam N-11), the Papp A→B at 180 min amounted to 1.4 ×10⁻⁶ cm/s.

`CC(C)C[C@H]1C(=O)N[C@@H](CCCc2ccccc2)C(=O)N(C)[C@@H](Cc2ccccc2)C(=O)N(C)[C@@H](C(C)C)C(=O)N[C@H](C(=O)N2CCCCC2)CC(=O)N[C@H](C)C(=O)N(C)C(Cc2ccccc2)C(=O)N[C@@H](C(C)C)C(=O)N(C)[C@@H](CC(C)C)C(=O)N[C@@H]([C@@H](C)O)C(=O)N(C)CC(=O)N1C` (stereo partly drawn) [pd193] ([dA][ξNMeF]V[NMeL]T[Sar][NMeL][hhPhe][NMeF][NMeV]D-Piperidide; lactam N-11) yielded a Papp A→B at 180 min of 1 ×10⁻⁶ cm/s.

On to `CC(C)C[C@H]1C(=O)N[C@H](C(=O)N2CCCCC2)CC(=O)N[C@H](C)C(=O)N(C)[C@@H](CC(C)C)C(=O)N[C@@H](COC(C)(C)C)C(=O)N(C)[C@@H](CC(C)C)C(=O)N2CCCC[C@H]2C(=O)N(C)[C@@H](C)C(=O)N[C@@H]([C@@H](C)O)C(=O)N(C)[C@@H](Cc2ccccc2)C(=O)N[C@@H](Cc2ccc(C(F)(F)F)cc2)C(=O)N1C` [pd137] ([dA][NMeL]S(tBu)[NMeL][Pip][NMeA]T[NMeF][Phe(4-CF3)][NMeL]D-Piperidide; lactam N-11), for which the Papp A→B at 180 min was 2.2 ×10⁻⁶ cm/s.

Molecule `CC(C)C[C@@H]1NC(=O)[C@H](Cc2ccccc2)N(C)C(=O)[C@H](CC(C)C)N(C)C(=O)[C@@H](C)N(C)C(=O)C[C@@H](C(=O)N2CCCCC2)NC(=O)[C@H](CC(C)C)N(C)C(=O)[C@H](Cc2ccccc2)N(C)C(=O)[C@H]([C@@H](C)O)NC(=O)[C@H](Cc2ccccc2)N(C)C1=O` [pd223] ([dNMeA][NMeL][NMeF]L[NMeF]T[NMeF][NMeL]D-Piperidide; lactam N-9) displayed a Papp A→B at 180 min of 1.1 ×10⁻⁶ cm/s.

`CC(C)C[C@@H]1NC(=O)[C@H](Cc2ccccc2)N(C)C(=O)[C@H](C)N(C)C(=O)C[C@@H](C(=O)N2CCCCC2)N(C)C(=O)[C@H](Cc2ccccc2)N(C)C(=O)[C@H](Cc2ccccc2)N(C)C(=O)[C@H](COC(C)(C)C)NC(=O)[C@H](C(C)C)N(C)C(=O)CN(C)C(=O)[C@H]([C@@H](C)O)NC(=O)[C@H](CC(C)C)N(C)C1=O` [pd202] ([NMeA][NMeF]L[NMeL]T[Sar][NMeV]S(tBu)[NMeF][NMeF][NMeD]-Piperidide; lactam N-11) had a Papp A→B at 180 min of 2.1 ×10⁻⁶ cm/s.

In turn, `CC(C)C[C@@H]1NC(=O)[C@H](CC(C)C)N(C)C(=O)[C@H](CC(C)C)N(C)C(=O)CN(C)C(=O)[C@H]([C@@H](C)O)NC(=O)[C@H](CC(C)C)N(C)C(=O)[C@H](CC(C)C)N(C)C(=O)[C@H](Cc2ccc(C(F)(F)F)cc2)NC(=O)[C@@H](C(C)C)NC(=O)C[C@@H](C(=O)N2CCCCC2)NC1=O` [pd148] ([dV][Phe(4-CF3)][NMeL][NMeL]T[Sar][NMeL][NMeL]LD-Piperidide; lactam N-10) registered a Papp A→B at 180 min of 1.1 ×10⁻⁶ cm/s.

Still in this data set, the particulars now being: human, Caco-2; Papp; Table 24, sequences where ARC = 4; read-out: Caco-2.
For `CC(C)C[C@@H]1NC(=O)[C@H](C)N(C)C(=O)C[C@@H](C(=O)N2CCCCC2)NC(=O)[C@H](CC(C)C)N(C)C(=O)CN(C)C(=O)[C@H]([C@@H](C)O)NC(=O)[C@H](Cc2cscn2)N(C)C(=O)[C@H](Cc2ccccc2)N(C)C(=O)[C@H](Cc2ccccc2)NC(=O)[C@H](Cc2ccccc2)NC(=O)[C@H](CC(C)C)N(C)C1=O` [pd236] ([NMeA]L[NMeL]FF[NMeF][NMeAla(4-thiazolyl)]T[Sar][NMeL]D-Piperidide; lactam N-11), the Papp A→B at 180 min turned out to be 0.096 ×10⁻⁶ cm/s.
